Experimental data from US20070203098A1, “Pten Inhibitors” (priority 2004, published 2007).
Marks after values point to notes of the source that are not given here.

Assays:
[1] = target: T1, PTEN (Homo sapiens, UniProt P60484); assay: PTEN Inhibition Assay: IC50 Determinations; format: biochemical; conditions: Table 29; read-out: PTEN IC50
[2] = target: T1, PTEN; assay: PTEN Inhibition Assay: General Screening; format: biochemical; conditions: 250 uM; Table 27 isatins; read-out: % Inhibition @250 uM
[3] = system: human brain endothelial cells (HBEC); assay: MTT Assay for Determining Toxicity, HBEC; format: cell-based; conditions: Endothelial cell, MTT, serum-free, 2 hours with compound, read-out: Viability IC50 HBEC
[4] = system: human non-small cell lung cancer cells (H1299); assay: MTT Assay for Determining Toxicity, H1299; format: cell-based; conditions: NCI-H1299, MTT, serum-free, 2 hours with compound, read-out: Viability IC50 H1299
[5] = system: MEF PTEN wt; assay: Migration Assay, MEF PTEN wt; format: cell-based, mouse; conditions: Table 4
[6] = system: human prostate cancer cells (PC-3); assay: MTT Assay for Determining Toxicity, PC-3; format: cell-based; conditions: MTT, serum-free, 2 hours with compound, read-out: Viability IC50 PC-3
[7] = target: T2, PTP1B (Homo sapiens, UniProt P18031); assay: PTP1B Inhibition Assay: IC50 Determinations; format: biochemical; conditions: Table 29; read-out: PTP1B IC50
T2 sequence (P18031 1-435): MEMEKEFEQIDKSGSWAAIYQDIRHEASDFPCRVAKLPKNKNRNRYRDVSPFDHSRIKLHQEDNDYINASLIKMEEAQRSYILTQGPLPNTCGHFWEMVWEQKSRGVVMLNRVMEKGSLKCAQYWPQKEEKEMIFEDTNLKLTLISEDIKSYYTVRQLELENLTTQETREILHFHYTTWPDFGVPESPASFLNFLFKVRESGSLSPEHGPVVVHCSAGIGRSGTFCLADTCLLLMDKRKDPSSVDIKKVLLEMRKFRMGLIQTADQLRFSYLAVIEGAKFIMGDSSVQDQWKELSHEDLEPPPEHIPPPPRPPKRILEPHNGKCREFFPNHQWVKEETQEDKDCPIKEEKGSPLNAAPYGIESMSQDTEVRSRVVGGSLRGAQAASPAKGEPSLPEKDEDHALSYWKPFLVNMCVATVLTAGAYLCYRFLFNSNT

[8] = system: HBEC (Human Brain Endothelial Cells); assay: Wound Healing Assay; format: cell-based
[9] = system: MEF PTEN null; assay: Migration Assay, MEF PTEN null; format: cell-based, mouse; conditions: Table 4

T1 sequence (P60484 whole entry, species assumed): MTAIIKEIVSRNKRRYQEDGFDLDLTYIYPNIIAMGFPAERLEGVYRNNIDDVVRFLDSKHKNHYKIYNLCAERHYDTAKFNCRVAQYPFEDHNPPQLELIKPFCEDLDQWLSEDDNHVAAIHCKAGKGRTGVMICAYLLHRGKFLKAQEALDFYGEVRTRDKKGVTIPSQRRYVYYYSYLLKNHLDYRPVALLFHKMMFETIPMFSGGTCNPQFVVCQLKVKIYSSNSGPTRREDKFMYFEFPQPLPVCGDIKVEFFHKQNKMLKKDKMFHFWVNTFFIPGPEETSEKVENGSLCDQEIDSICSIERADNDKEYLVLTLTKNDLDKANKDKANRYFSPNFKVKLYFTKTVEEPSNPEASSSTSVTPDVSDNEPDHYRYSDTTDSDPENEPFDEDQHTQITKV

O=C1Nc2ccc([N+](=O)[O-])cc2C1=O [SF1770-000, 5-nitroindoline-2,3-dione]
IC50 [1]: 2.2 µM | inhibition at 250 µM [2]: 99.4% | IC50 [3]: > 1000 µM | IC50 [4]: 695 µM | migration number, Average ([5]; 125 uM): 22.90 | migration number, Average ([5]; 250 uM): 22.40 | IC50 [6]: > 1000 µM | IC50 [7]: 16.3 µM | distance the cells have grown out ([8]; 10 nM, 2 hrs): 0.02667* millimeters | distance the cells have grown out ([8]; 10 nM, 4 hrs): 0.045* millimeters | distance the cells have grown out ([8]; 10 nM, 6 hrs): 0.065* millimeters | distance the cells have grown out ([8]; 10 nM, 24 hrs): 0.1483* millimeters | distance the cells have grown out ([8]; 50 nM, 2 hrs): 0.05 millimeters | distance the cells have grown out ([8]; 50 nM, 4 hrs): 0.06 millimeters | distance the cells have grown out ([8]; 50 nM, 6 hrs): 0.075 millimeters | distance the cells have grown out ([8]; 50 nM, 24 hrs): 0.2233* millimeters | distance the cells have grown out ([8]; 250 nM, 2 hrs): 0.04 millimeters | distance the cells have grown out ([8]; 250 nM, 4 hrs): 0.05167 millimeters | distance the cells have grown out ([8]; 250 nM, 6 hrs): 0.06667 millimeters | distance the cells have grown out ([8]; 250 nM, 24 hrs): 0.2017* millimeters | distance the cells have grown out ([8]; 1000 nM, 2 hrs): 0.04 millimeters | distance the cells have grown out ([8]; 1000 nM, 4 hrs): 0.06167 millimeters | distance the cells have grown out ([8]; 1000 nM, 6 hrs): 0.07667 millimeters | distance the cells have grown out ([8]; 1000 nM, 24 hrs): 0.2417 millimeters | HBEC migration across the wound, in words ([8]; relative to no treatment control): migrate faster | migration number, Average ([9]; 125 uM): 42.30 | migration number, Average ([9]; 250 uM): 41.50
